Data reported in patent US6777440B2, “HIV integrase inhibitors” (Bristol-Myers Squibb Company, priority 2001, dated 2004).

Key:
[1] = test system: single cycle, recombinant HIV virus expressing Renella luciferase; test: Inhibition of HIV replication (single cycle recombinant virus, luciferase readout); format: cell-based; settings: Human immunodeficiency virus 1, 120 h, read-out: % Inhibition @ 1.6 uM
Description: Cell culture assays were preformed using a single cycle, recombinant HIV virus expressing Renella luciferase. Anti-viral activity was evaluated by measuring the production of luciferase in the infected cells 5 days post-infection. Susceptibility of the virus to compounds was determined by incubation in the presence of the serially-diluted compound. The 50% effective concentration (EC50) was calculated by using the exponential form of the median effect equation where (Fa)=1/[1+(ED50/drug conc.)^m]. Compounds of this invention tested in this assay have EC50's of approximately 0.02 to 50 μM.

HIV-integrase = molecular target: T1, HIV-integrase (Human immunodeficiency virus type 1 group M subtype B, UniProt P04585); test: HIV-integrase inhibition activity (SPA bead strand-transfer assay); format: biochemical; settings: 50 μM compound; recombinant integrase
T1 construct: 0.26 ng of recombinant integrase was incubated with the beads
Description: For each reaction, 5 pmole of biotin labled substrate DNA was bound to 100 ug of Streptavidin coated PVT SPA beads (Amersham Pharmacia Biotech). 0.26 ng of recombinant integrase was incubated with the beads for 90 min at 37° C. Unbound enzyme was removed by washing the complex followed by addition of inhibitors and 0.1 fmol of P33 labeled target DNA. Reaction was stopped by adding EDTA to a final concentration of 10 mM. Samples were counted in TopCountNXT (Packard) and the CPM was used as a measure of integration. Reaction condition was as described in A. Engelman and R. Craigie, J. Virol. 69, 5908-5911 (1995). The sequences of substrate and target DNA were described in Nucleic Acid Research 22, 1121-1122 (1994). Compounds of this invention tested in this assay have IC50's of approximately 0.01 to 50 μM

[2] = Hydrolysis of prodrugs under physiological conditions (pH 7, 37° C., HPLC); format: physicochemical; settings: 25 mM phosphate buffer pH 7, 37° C.; for Compound 3: parent acid formed from 3-C; for Compound 3-C: remaining prodrug
Description: As shown in Scheme VII, compounds of Formula VII-A wherein R^1 and R^2 are as defined for Formula I, are hydrolyzed at pH 7 (37° C.) to yield the corresponding 2-hydroxy acrylic, VII-B, and are thus useful as prodrugs. [drawing 203]
In an experiment to measure the hydrolysis of compounds such as VII-A, compound 3-C was added to 25 mM phosphate buffer (pH 7) at a concentration of 0.03 mg/mL. The reaction was incubated at 37° C. for a period of 24 hours. Interval time points are analyzed by HPLC, identifying both the compound 3-C and compound 3, the parent acid.

SMILES	inhibition at 1.6 µM [1] [%]	melting point	inhibition at 50 µM (HIV-integrase) [%]	also measured
CON(Cc1ccccc1OC(C)C)C(=O)/C=C(\O)C(=O)O [Compound 31, 2-Hydroxy-3-[(2-isopropoxy-benzyl)-methoxy-carbamoyl]-acrylic acid]	47	–	–	–
CON(Cc1ccc(F)c(Cl)c1)C(=O)/C=C1\OC(C)(C)OC1=O [Compound 5-B, N-(3-Chloro-4-fluoro-benzyl)-2-(2,2-dimethyl-5-oxo-[1,3]dioxolan-4-ylidene)-N-methoxy-acetamide]	94	110 to 111 °C	–	–
CON(Cc1ccccc1C)C(=O)/C=C(\O)C(=O)O [Compound 15, 2-Hydroxy-3-[methoxy-(2-methyl-benzyl)-carbamoyl]-acrylic acid]	33	85 to 87 °C (dec.)	99	–
CON(Cc1ccc(F)c(Cl)c1)C(=O)/C=C(\O)C(=O)O [Compound 5, 3-[(3-Chloro-4-fluoro-benzyl)-methoxy-carbamoyl]-2-hydroxy-acrylic acid]	96	–	99.9	–
CON(Cc1ccc(Cl)c(Cl)c1)C(=O)/C=C(\O)C(=O)O [Compound 4, 3-[(3,4-Dichloro-benzyl)-methoxy-carbamoyl]-2-hydroxy-acrylic acid]	90	–	99.9	–
CON(Cc1ccc(Cl)c(Cl)c1)C(=O)/C=C1\OC(C)(C)OC1=O [Compound 4-B, N-(3,4-Dichloro-benzyl)-2-(2,2-dimethyl-5-oxo-[1,3]dioxolan-4-ylidene)-N-methoxy-acetamide]	87	119 to 120 °C	–	–
CON(Cc1ccc(NC(C)=O)cc1)C(=O)/C=C(\O)C(=O)O [Compound 23, 3-[(4-Acetylamino-benzyl)-methoxy-carbamoyl]-2-hydroxy-acrylic acid]	–	155 °C (dec.)	65	–
CON(Cc1ccc(F)cc1)C(=O)/C=C(\O)C(=O)O [Compound 3, 3-[(4-Fluoro-benzyl)-methoxy-carbamoyl]-2-hydroxy-acrylic acid]	96	129 °C (dec.)	99.9	Compound 3 ([2]; time 0 h): 0.001 mg/mL; Compound 3 ([2]; time 0.5 h): 0.008 mg/mL; Compound 3 ([2]; time 1 h): 0.012 mg/mL; Compound 3 ([2]; time 1.5 h): 0.014 mg/mL; Compound 3 ([2]; time 2 h): 0.016 mg/mL; Compound 3 ([2]; time 4 h): 0.021 mg/mL; Compound 3 ([2]; time 6 h): 0.022 mg/mL
CON(Cc1ccc(F)cc1)C(=O)/C=C1\OC(C)(C)OC1=O [Compound 3-C, 2-(2,2-Dimethyl-5-oxo-[1,3]dioxolan-4-ylidene)-N-(4-fluoro-benzyl)-N-methoxy-acetamide]	96	–	–	Compound 3-C ([2]; 3-C added at 0.03 mg/mL, time 0 h): 0.026 mg/mL; Compound 3-C ([2]; time 0.5 h): 0.022 mg/mL; Compound 3-C ([2]; time 1 h): 0.017 mg/mL; Compound 3-C ([2]; time 1.5 h): 0.013 mg/mL; Compound 3-C ([2]; time 2 h): 0.010 mg/mL; Compound 3-C ([2]; time 4 h): 0.003 mg/mL; Compound 3-C ([2]; time 6 h): 0.001 mg/mL
CN(C)C(=O)CON(Cc1ccc(F)cc1)C(=O)/C=C(\O)C(=O)O [Compound 22, 3-[Dimethylcarbamoylmethoxy-(4-fluoro-benzyl)-carbamoyl]-2-hydroxy-acrylic acid]	–	118 to 120 °C	99.9	–
COc1ccc(CN(OC)C(=O)/C=C(\O)C(=O)O)cc1 [Compound 16, 2-Hydroxy-3-[methoxy-(4-methoxy-benzyl)-carbamoyl]-acrylic acid]	–	83 to 86 °C	99	–
CON(Cc1ccc(F)c(Br)c1)C(=O)/C=C(\O)C(=O)O [Compound 14, 3-[(3-Bromo-4-fluoro-benzyl)-methoxy-carbamoyl]-2-hydroxy-acrylic acid]	–	140 to 141 °C	99.9	–
CON(Cc1ccc(C#N)cc1)C(=O)/C=C(\O)C(=O)O [Compound 21, 3-[(4-Cyano-benzyl)-methoxy-carbamoyl]-2-hydroxy-acrylic acid]	–	135 to 137 °C (dec.)	99.9	–
CCON(Cc1ccc(F)cc1)C(=O)/C=C(\O)C(=O)O [Compound 12, 3-[Ethoxy-(4-fluoro-benzyl)-carbamoyl]-2-hydroxy-acrylic acid]	–	120 to 121 °C (dec.)	99.9	–
CC(C)CON(Cc1ccc(F)cc1)C(=O)/C=C(\O)C(=O)O [Compound 13, 3-[(4-Fluoro-benzyl)-isobutoxy-carbamoyl]-2-hydroxy-acrylic acid]	–	100 to 101 °C	99.9	–
